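96-well plates; 48 h exposure; 5 concentrations. Endpoints by linear interpolation between flanking doses. Not reached: highest tested concentration assigned. Here, GI50 denotes the concentration required for 50% inhibition of growth.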 Calls of active or inactive are those of the source. Rule as the data show it: active = GI50 up to about 1.1 µM and inactive = higher.
Tests used:
Assay in all cases: NCI tumour cell line growth inhibition, 48 h
U-251 = system: U-251
SNB-75 = system: SNB-75
NCI-H23 = system: NCI-H23
SK-MEL-2 = system: SK-MEL-2
SF-539 = system: SF-539
UO-31 = system: UO-31
KM12 = system: KM12
SN12C = system: SN12C
A549 = system: A549
HCT-15 = system: HCT-15
LOX IMVI = system: LOX IMVI
SK-OV-3 = system: SK-OV-3
A498 = system: A498
OVCAR-4 = system: OVCAR-4
SNB-19 = system: SNB-19
SR = system: SR

Oc1cc(-c2ccccc2)nc2cc(Cl)ccc12
GI50 (U-251): 0.509 µM (active) | GI50 (SNB-75): 0.352 µM (active) | GI50 (NCI-H23): 1.1 µM (active) | GI50 (SK-MEL-2): 0.445 µM (active) | GI50 (SF-539): 0.412 µM (active) | GI50 (UO-31): 5.06 µM (inactive) | GI50 (KM12): 0.695 µM (active) | GI50 (SN12C): 3.3 µM (inactive) | GI50 (A549): 0.515 µM (active) | GI50 (HCT-15): 0.387 µM | GI50 (LOX IMVI): 0.869 µM (active) | GI50 (SK-OV-3): 0.493 µM (active) | GI50 (A498): 1.35 µM (inactive) | GI50 (OVCAR-4): 9.14 µM (inactive) | GI50 (SNB-19): 0.527 µM (active)

O=C1OC(CCCl)(c2ccccc2)CC1CN1CCOCC1 (stereo unspecified)
GI50 (U-251): > 100 µM (inactive) | GI50 (SNB-75): 15.4 µM (inactive) | GI50 (NCI-H23): 8.95 µM (inactive) | GI50 (SK-MEL-2): 24.3 µM (inactive) | GI50 (SF-539): 27.2 µM (inactive) | GI50 (UO-31): 68.9 µM (inactive) | GI50 (KM12): 20.2 µM (inactive) | GI50 (SN12C): 29.2 µM (inactive) | GI50 (A549): 80.5 µM (inactive) | GI50 (HCT-15): 20.9 µM | GI50 (LOX IMVI): 27.3 µM (inactive) | GI50 (SK-OV-3): > 100 µM (inactive) | GI50 (A498): > 100 µM (inactive) | GI50 (OVCAR-4): 48.4 µM (inactive)

O=c1cc2n(c(=O)[nH]1)C1OC(C(O)C1O)[C@H]2CCO (stereo partly specified)
GI50 (U-251): > 100 µM (inactive) | GI50 (NCI-H23): > 100 µM (inactive) | GI50 (SK-MEL-2): > 100 µM (inactive) | GI50 (SF-539): > 100 µM (inactive) | GI50 (UO-31): > 100 µM (inactive) | GI50 (KM12): > 100 µM (inactive) | GI50 (SN12C): > 100 µM (inactive) | GI50 (A549): > 100 µM (inactive) | GI50 (SR): > 100 µM (inactive) | GI50 (LOX IMVI): > 100 µM (inactive) | GI50 (SK-OV-3): > 100 µM (inactive) | GI50 (A498): > 100 µM (inactive) | GI50 (OVCAR-4): > 100 µM (inactive) | GI50 (SNB-19): > 100 µM (inactive)

O=C(CC1(O)C(=O)Nc2c(Cl)ccc(Cl)c21)c1ccc(Cl)cc1Cl (stereo unspecified)
GI50 (U-251): 10 µM (inactive) | GI50 (SNB-75): 16.7 µM (inactive) | GI50 (NCI-H23): 19.9 µM (inactive) | GI50 (SK-MEL-2): 21.3 µM (inactive) | GI50 (SF-539): 19.2 µM (inactive) | GI50 (UO-31): 20.7 µM (inactive) | GI50 (KM12): 16.5 µM (inactive) | GI50 (SN12C): 16.6 µM (inactive) | GI50 (A549): 23.5 µM (inactive) | GI50 (HCT-15): 30.6 µM | GI50 (LOX IMVI): 14.3 µM (inactive) | GI50 (SK-OV-3): 21.9 µM (inactive) | GI50 (A498): 26.3 µM (inactive) | GI50 (OVCAR-4): 10.4 µM (inactive) | GI50 (SNB-19): 32.2 µM (inactive)

CCC1CCC2CCCC(C)N12 (stereo unspecified)
GI50 (U-251): > 100 µM (inactive) | GI50 (SNB-75): > 100 µM (inactive) | GI50 (NCI-H23): > 100 µM (inactive) | GI50 (SK-MEL-2): > 100 µM (inactive) | GI50 (SF-539): > 100 µM (inactive) | GI50 (UO-31): > 100 µM (inactive) | GI50 (KM12): > 100 µM (inactive) | GI50 (SN12C): > 100 µM (inactive) | GI50 (A549): > 100 µM (inactive) | GI50 (HCT-15): > 100 µM | GI50 (SR): > 100 µM (inactive) | GI50 (OVCAR-4): > 100 µM (inactive) | GI50 (SNB-19): > 100 µM (inactive)

O=C(/N=C(/Nc1ccccc1)SCCS/C(=N\C(=O)c1ccccc1)Nc1ccccc1)c1ccccc1
GI50 (U-251): 79.8 µM (inactive) | GI50 (SNB-75): 29.5 µM (inactive) | GI50 (NCI-H23): 59.8 µM (inactive) | GI50 (SK-MEL-2): > 100 µM (inactive) | GI50 (SF-539): 68.2 µM (inactive) | GI50 (UO-31): 32.9 µM (inactive) | GI50 (KM12): 62.5 µM (inactive) | GI50 (SN12C): 63.1 µM (inactive) | GI50 (A549): 65.2 µM (inactive) | GI50 (HCT-15): 54.8 µM | GI50 (LOX IMVI): 58.6 µM (inactive) | GI50 (A498): 58.7 µM (inactive) | GI50 (OVCAR-4): 42.1 µM (inactive) | GI50 (SNB-19): 56.4 µM (inactive)

CC(=O)NNc1ncc(C(=O)/C=C/c2ccccc2C)s1
GI50 (U-251): > 100 µM (inactive) | GI50 (SNB-75): > 100 µM (inactive) | GI50 (NCI-H23): > 100 µM (inactive) | GI50 (SK-MEL-2): > 100 µM (inactive) | GI50 (SF-539): > 100 µM (inactive) | GI50 (UO-31): > 100 µM (inactive) | GI50 (KM12): > 100 µM (inactive) | GI50 (A549): > 100 µM (inactive) | GI50 (LOX IMVI): > 100 µM (inactive) | GI50 (SK-OV-3): > 100 µM (inactive) | GI50 (A498): > 100 µM (inactive) | GI50 (SNB-19): > 100 µM (inactive)

CCOc1ccc(N(CC(=O)N2CC(=O)Nc3cc(C)c(C)cc32)C(C)=O)cc1
GI50 (U-251): > 100 µM (inactive) | GI50 (SNB-75): > 100 µM (inactive) | GI50 (NCI-H23): > 100 µM (inactive) | GI50 (SK-MEL-2): > 100 µM (inactive) | GI50 (SF-539): > 100 µM (inactive) | GI50 (UO-31): 75.7 µM (inactive) | GI50 (KM12): > 100 µM (inactive) | GI50 (SN12C): > 100 µM (inactive) | GI50 (A549): > 100 µM (inactive) | GI50 (HCT-15): > 100 µM | GI50 (SR): > 100 µM (inactive) | GI50 (LOX IMVI): > 100 µM (inactive) | GI50 (SK-OV-3): > 100 µM (inactive) | GI50 (OVCAR-4): > 100 µM (inactive) | GI50 (SNB-19): > 100 µM (inactive)

[O-][S+]1Cc2ccccc2CSS1 (stereo unspecified)
GI50 (U-251): 14.3 µM (inactive) | GI50 (SNB-75): 19.6 µM (inactive) | GI50 (NCI-H23): 14.3 µM (inactive) | GI50 (SF-539): 14.5 µM (inactive) | GI50 (UO-31): 17.9 µM (inactive) | GI50 (KM12): 16.8 µM (inactive) | GI50 (SN12C): 14.4 µM (inactive) | GI50 (A549): 19 µM (inactive) | GI50 (HCT-15): 13 µM | GI50 (SR): 13.9 µM (inactive) | GI50 (LOX IMVI): 3.96 µM (inactive) | GI50 (SK-OV-3): 44.3 µM (inactive) | GI50 (A498): 56.5 µM (inactive) | GI50 (OVCAR-4): 16.6 µM (inactive) | GI50 (SNB-19): 35.5 µM (inactive)

COC(=O)C1=CCS(=O)(=O)C1
GI50 (SNB-75): > 100 µM (inactive) | GI50 (NCI-H23): > 100 µM (inactive) | GI50 (SK-MEL-2): > 100 µM (inactive) | GI50 (SF-539): > 100 µM (inactive) | GI50 (UO-31): > 100 µM (inactive) | GI50 (KM12): > 100 µM (inactive) | GI50 (SN12C): > 100 µM (inactive) | GI50 (A549): > 100 µM (inactive) | GI50 (HCT-15): > 100 µM | GI50 (LOX IMVI): > 100 µM (inactive) | GI50 (SK-OV-3): > 100 µM (inactive) | GI50 (A498): > 100 µM (inactive) | GI50 (OVCAR-4): > 100 µM (inactive) | GI50 (SNB-19): > 100 µM (inactive)

From ChEMBL document CHEMBL1201862, “PubChem BioAssay data set” (2004)
